Measurements taken from patent publication US20050163773A1, “Methods and pharmaceutical compositions for dopaminergic modulation of t-cell adhesion and activity” (priority 2001, published 2005).
“Also recorded” adds a separate entry of the source.

How the values were obtained:
[1] = test system: Dopamine receptors on normal human T-cells; details: for blocking of DPAT-induced T-cell adhesion to fibronectin: DPAT 10 nM
Procedure: Non-radioactive assessment of T-cell binding was performed as described in Material and Methods, results presented as the mean ±OD of bound T-cells from 4-6 wells.
The treated cells were suspended in adhesion medium and incubated (30 min., 37° C.) in a humidified 10% CO2 incubator. The cells were seeded in the fibronectin-coated microtiter plates, and the plates were then returned to the incubator for an additional 30 min. incubation. The amount of T-cell adhesion was determined as above.

α4β1 and α5β1 integrins = assay: Inhibition of induced T-cell adhesion to fibronectin with specific integrin blockers; assay type: cell-based, human; details: for blocking of DPAT-induced T-cell adhesion to fibronectin by integrin blockers: DPAT 10 nM; for blocking of DPAT-induced T-cell adhesion to fibronectin by integrin blockers / blocking of Dopamine-induced T-cell adhesion to fibronectin by integrin blockers: mAbs 15-25 μg/ml, peptides 50 μg/ml; for blocking of Dopamine-induced T-cell adhesion to fibronectin by integrin blockers: Dopamine 10 nM; for inhibition of PMA-induced T-cell adhesion to fibronectin by integrin blockers: PMA as positive control
Procedure: The results are presented as the mean ±SD CPM of bound T-cells from quadruplicate wells. One experiment, representative of two, is presented for each of the three inducers of T-cell binding.
The treated cells were seeded in fibronectin-coated microtiter plates.

TNFα secretion = TNFα secretion by human peripheral T-cells (sandwich ELISA); assay type: cell-based
Source text: (§1) The results are expressed as pg/ml.
(§2) The results are expressed as pg/mi.
as §1, §1, §1

IL-10 secretion [2] = assay: IL-10 secretion by human peripheral T-cells (sandwich ELISA); assay type: cell-based; details: for inhibition of Dopamine-induced IL-10 secretion by receptor-specific antagonists: L-741,626 10^−7 M, U-Mal 10^−6 M, L-741,741 10^−6 M
Source text: The results are expressed as pg/ml IL-10. […] Immunostaining is with intracellular anti-IL-10 FITC conjugated (FL-1) and anti-CD4 PE conjugated (FL-2) antibodies, as described in Materials and Methods hereinbelow.
as §2, §1, §1, §1

IL-4 secretion = details: Dopamine 10^−8 M, 24 hours
[3] = test system: normal human peripheral T-cells; details: Dopamine 10^−8 M, 48 hours
IL-10 secretion [4] = details: Dopamine 10^−8 M, 72 hours
[5] = test system: normal human peripheral T-cells
normal human T-cells = assay: T-cell adhesion assay (adhesion of human T-cells to fibronectin); details: dose dependence, human T-cells
Procedure: T-cell adhesion assay: In the majority of the experiments, adhesion of purified normal human T-cells to fibronectin was assayed with radioactively labeled T-cells as follows: normal human T-cells, purified from a fresh blood sample, were labeled with Na2[^51CrO4], washed, and resuspended in adhesion medium (RPMI-1640 supplemented with 2% BSA, 1 mM Ca^++, 1 mM Mg^++, 1% sodium pyruvate, 1% glucose, and 1% HEPES buffer). The cells were then pre-treated (30 min., 37° C.) with DPAT, and added to fibronectin coated (1 μg/well; Sigma Chemicals, St. Louis, Mo.) microtiter flat-bottomed 96 well plates (1×10^5 cells/100 μl/well). The plates were placed in a humidified incubator (37° C., 30 min., 10% CO2), and than washed thoroughly several times with PBS, to remove non-adherent T-cells. The adherent T-cells were lysed with 1% Tween 20 in 1N NaOH, and the radioactivity in the resulting supernatants was determined in a γ-counter. For each experimental group, results were expressed as the mean CPM±SD of bound T-cells from quadruplicate wells. DPAT-treated T-cell adhesion to BSA-(rather than fibronectin) coated wells, and untreated T-cell adhesion to fibronectin coated wells, were the standard negative controls.
Non-radioactive T-cell adhesion assays: Alternatively, T-cell adhesion assays were performed with non-radioactively labeled cells, differing from the above protocol only in the final detection steps which were performed as follows: After the final washing of the adhesion plates and removal of the non adherent cells, the microtiter wells were supplemented with lysis and substrate solution (60 μl/well of: 0.5% Triton X-100 in water mixed with an equal volume of 7.5 mM p-nitrophenol-N-acetyl-β-D-glucosaminide, (Sigma Chemicals, St. Louis, Mo.) in 0.1M citrate buffer pH=5.0). The plates were then incubated (˜18hr) in a CO2-free 37° C. incubator, supplemented with stop solution (90 μl/well of 50 mM glycine, (Sigma Chemicals, St. Louis, Mo.) pH=10.4 containing 5 mM EDTA), and the optical density was measured at 405 nm in a standard Elisa reader.

[6] = test system: SJL/J anti PLP 139-151 T-cells; assay: Experimental autoimmune encephalomyelitis (EAE) induced by encephalitogenic T-cells treated ex vivo; assay type: in vivo, mouse; details: U-Mal 10^−7 M, 5 minutes before DPAT
[7] = test system: oxazalone-sensitized T-cells; assay: Passively transferred delayed type hypersensitivity (DTH) with T-cells treated ex vivo; assay type: in vivo, mouse
Procedure: Lymph nodes were removed from oxazalone-sensitized mice, and the T-cell suspension was exposed ex-vivo to increasing concentrations of DPAT (FIG. 9A, DPAT […]-DPAT 10^−6M) as described for FIG. 8 hereinabove. Control T-cells were incubated with medium only (untreated T-cells). The T-cells were then washed, resuspended in PBS and injected intravenously into naive syngeneic mice. The ears of the recipient mice were than challenged with oxazalone, and the degree of ear swelling was measured by micrometer 24 hr later. DTH is expressed as the mean ±SD of ear swelling in units of 10^−2 mm. […] Oxazalone-sensitized T-cells were incubated ex vivo for one hour with either DPAT (10^−8 M, +DPAT) or U-Mal (10^−7 M, +U-Mal), or both. The T-cells were then washed, resuspended in PBS, injected intravenously into normal recipients, and DTH measured as described hereinabove. […] FIGS. 9A and 9B represent two individual experiments, each experimental group consisting of 8 mice.
Passively transferred delayed type hypersenisitivity (DTH): Groups of 6-8 BALB/c female mice (The Jackson Laboratory, Bar Harbor, Mass., USA) were sensitized on the abdominal skin with 200 μt of 2% oxazalone dissolved in acetone/olive oil [4:1 vol/vol)] applied topically. Five days later, lymph nodes were removed from the sensitized mice, and a cell suspension prepared. The cells (3-5×10^6/ml in RPMI, no additional supplements) were than added for […] incubation ([…]. 37° C., 10% CO2 humidified incubator) with either DPAT, U-Mal, or both (in the latter combination the antagonist added 5 minutes before the agonist). The cells were than washed, resuspended in PBS, and injected IV (40×10^6 /mouse) into normal BALB/c recipients. Immediately afterwards the recipient mice were […] with 10 μl of 2% oxazalone in acetone/olive oil, applied topically to each side of the ear. A constant area of the ear was measured immediately before challenge and 24 hr after the challenge with a Mitutoyo engineer's micrometer. The individual measuring the ear swelling was unaware of the identity of the mice groups. The DTH reaction is expressed as the mean±SD (for each group) of the increment of ear swelling 24 hours after inoculation of the oxazalone-sensitized T-cells, in units of 10^−2 mm.

Compound: CC(C)(C)[C@]1(O)CCN2C[C@H]3c4ccccc4CCc4cccc(c43)[C@@H]2C1 [Butaclamol]
- blocking of DPAT-induced T-cell adhesion to fibronectin [1]: without effect

Compound: gly-arg-gly-asp-ser (GRGDS) [RGD peptide]
- blocking of DPAT-induced T-cell adhesion to fibronectin by integrin blockers (α4β1 and α5β1 integrins): effectively blocked
- blocking of Dopamine-induced T-cell adhesion to fibronectin by integrin blockers (α4β1 and α5β1 integrins): effectively blocked
- inhibition of PMA-induced T-cell adhesion to fibronectin by integrin blockers (α4β1 and α5β1 integrins): inhibition

Compound: Oc1cc2c(cc1O)C(c1ccccc1)CNCC2 (centres unmarked) [SKF 38393]
- induction of TNFα secretion by receptor-specific Dopamine agonists (TNFα secretion; agonist 10^−7 M, 24 hours): induced by D1

Compound: gly-arg-gly-glu-ser (GRGESP) [RGE-containing peptide, non-relevant RGE-containing control peptide]
- blocking of DPAT-induced T-cell adhesion to fibronectin by integrin blockers (α4β1 and α5β1 integrins): No significant effect
- blocking of Dopamine-induced T-cell adhesion to fibronectin by integrin blockers (α4β1 and α5β1 integrins): No significant effect
- inhibition of PMA-induced T-cell adhesion to fibronectin by integrin blockers (α4β1 and α5β1 integrins): insensitivity

Compound: NCCc1ccc(O)c(O)c1 [Dopamine]
- Dopamine concentration inducing maximal IL-10 secretion (IL-10 secretion [2]; 72 hours): 10^−4 M
- Dopamine concentration with significant effect on IL-10 secretion (IL-10 secretion [2]; 72 hours): ≥ 10^−8 M
- increase in IL-10 secretion (IL-10 secretion [2]; Dopamine 10 nM, 72 hours): 2.5 fold
- IL-10 secretion at excess Dopamine (IL-10 secretion [2]; Dopamine 10^−3 M): drastic reduction in cytokine secretion
- time of maximal IL-10 secretion (IL-10 secretion [2]; Dopamine 10^−8 M): 72 h
- IL-10 release (IL-10 secretion [2]; Dopamine 10^−8 M, 72 hours, no antigen stimulation): induced a strong release of IL-10
- Dopamine concentration inducing maximal TNFα secretion (TNFα secretion; 24 hours): 10^−4 M
- Dopamine concentration with significant effect on TNFα secretion (TNFα secretion; 24 hours): ≥ 10^−8 M
- TNFα secretion at excess Dopamine (TNFα secretion; Dopamine 10^−3 M): drastic reduction in cytokine secretion
- TNF-α release (TNFα secretion; Dopamine 10^−8 M, 24 hours, no antigen stimulation): induced a strong release of TNF-α
- IL-4 secretion (IL-4 secretion): but not IFN-γ (FIG. 11B) or IL-4
- increase in the number of IL-10 producing T-helper cells [3]: 9%
- IL-10 secretion, cloned resting Th0 cells (IL-10 secretion [4]): strong induction
- IL-10 secretion, cloned resting Th1 cells ("forbidden" cytokine) (IL-10 secretion [4]): secreting significant amounts of IL-10
- IL-10 secretion, cloned resting Th2 cells (IL-10 secretion [4]): strong induction
- cellular death in normal T-cells [5]: induces cellular death
- r-RNA bands in total RNA (loss of viability) ([5]; Dopamine 10^−3): near total absence of r-RNA bands
- optimum concentration for induction of T-cell adhesion to fibronectin (normal human T-cells): 10 nM

Compound: CCCN(CCC)C1Cc2cc(OC)c(OC)cc2C1.O=C(O)/C=C\C(=O)O [U-Mal, U-99194A maleate]
- effect of pre-treatment on the DPAT suppressive effect in EAE [6]: prevented
- effect on DTH by itself ([7]; U-Mal 10^−7 M alone): no effect by itself
- effect of pre-treatment on DPAT suppression of DTH ([7]; U-Mal 10^−7 M, 5 minutes before DPAT 10^−8 M): near total block of protection; also recorded: prevented
- inhibition of Dopamine-induced IL-10 secretion by receptor-specific antagonists (IL-10 secretion [2]; Dopamine 10^−8 M, 72 hours): inhibited by the D2 and D3
- inhibition of Dopamine-induced TNFα secretion by receptor-specific antagonists (TNFα secretion; Dopamine 10^−8 M, 24 hours, L-741,626 10^−7 M, U-Mal 10^−6 M, L-741,741 10^−6 M): inhibited by D3
- blocking of DPAT-induced T-cell adhesion to fibronectin [1]: succeeded in blocking
- independent effect on T-cell adhesion to fibronectin ([1]; antagonist alone, data not shown): no independent effect
- toxic effects on the human T-cells ([1]; data not shown): no toxic effects

Compound: OC1(c2ccc(Cl)cc2)CCN(Cc2c[nH]c3ccccc23)CC1 [L-741,626]
- inhibition of Dopamine-induced IL-10 secretion by receptor-specific antagonists (IL-10 secretion [2]; Dopamine 10^−8 M, 72 hours): inhibited by the D2
